Where two headings read alike, the source gives them in different places. A value given as a limit tells only on which side of the number the result lay.

For experiment [1], the target named is T1, Aurora-2 (Homo sapiens, UniProt O14965).
T1 sequence (O14965 1-403): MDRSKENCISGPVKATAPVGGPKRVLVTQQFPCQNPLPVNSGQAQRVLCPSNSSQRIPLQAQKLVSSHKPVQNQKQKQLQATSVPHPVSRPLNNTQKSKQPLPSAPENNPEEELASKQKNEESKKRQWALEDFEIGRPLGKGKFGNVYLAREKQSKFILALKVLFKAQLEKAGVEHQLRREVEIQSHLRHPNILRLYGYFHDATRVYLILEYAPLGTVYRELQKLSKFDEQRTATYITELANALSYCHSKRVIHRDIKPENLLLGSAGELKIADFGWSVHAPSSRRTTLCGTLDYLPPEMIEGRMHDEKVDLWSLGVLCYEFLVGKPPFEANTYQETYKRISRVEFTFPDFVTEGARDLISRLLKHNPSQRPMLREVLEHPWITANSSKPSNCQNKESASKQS
The experiment is described as follows: Inhibition assay of Aurora-2 activity (SPA technology). The experiment is classed as biochemical. How it is done:
The inhibiting activity and the potency of selected compounds is determined through a method of assay based on the use of the SPA technology (Amersham Pharmacia Biotech).
The assay consists of the transfer of radioactivity labelled phosphate moiety by the kinase to a biotinylated substrate. The resulting 33P-labelled biotinylated product is allowed to bind to streptavidin-coated SPA beads (biotin capacity 130 pmol/mg), and light emitted was measured in a scintillation counter.
Kinase reaction: 8 µM biotinylated peptide (4 repeats of LRRWSLG, commercially available from Sigma, catalogue no. L-3523), 10 µM ATP (0.5 uCi P^33γ-ATP), 7.5 ng Aurora 2, inhibitor in a final volume of 30 µl buffer (HEPES 50 mM pH 7.0, MgCl2 10 mM, 1 mM DTT, 0.2 mg/mL BSA, 3 µM orthovanadate) were added to each well of a 96 U bottom well plate. After 60 minutes at room temperature incubation, the reaction was stopped and biotinylated peptide captured by adding 100 µl of bead suspension.
Stratification: 100 µl of CsCl 5 M were added to each well and stood for 4 hours before radioactivity was counted in the Top-Count instrument.
IC50 determination: inhibitors were tested at different concentrations ranging from 0.0015 to 10 µM. Experimental data were analyzed by the computer program GraphPad Prizm using the four parameter logistic equation: y = bottom+(top-bottom)/(1+10^((logIC50-x)*slope)) where x is the logarithm of the inhibitor concentration, y is the response; y starts at bottom and goes to top with a sigmoid shape. Ki calculation: Experimental method: Reaction was carried out in buffer (10 mM Tris, pH 7.5, 10 mM MgCl2, 0.2 mg/mL BSA, 7.5 mM DTT) containing 3.7 nM enzyme, histone and ATP (constant ratio of cold/labeled ATP 1/3000). The reaction was stopped with EDTA and the substrate captured on phosphomembrane (Multiscreen 96 well plates from Millipore). After extensive washing, the multiscreen plates were read on a top counter. Control (time zero) for each ATP and histone concentrations was measured.

Experiment [2] deals with human colon cancer cell line HCT-116. The experiment is described as follows: In vitro cell proliferation assay. The experiment is classed as cell-based. Particulars: HCT-116, 72 hours of treatment, cell count, read-out: Cell Antiproliferation (HCT-116) IC50. How it is done: The human colon cancer cell line HCT-116 was seeded at 5000 cells/cm^2 in 24 wells plate (Costar) using F12 medium (Gibco) supplemented with 10% FCS (EuroClone, Italy) 2 mM L-glutamine and 1% penicillin/streptomycin and maintained at 37°C, 5% CO2 and 96% relative humidity. The following day, plates were treated in duplicates with 5ul of an appropriate dilution of compounds starting from a 10 mM stock in DMSO. Two untreated control wells were included in each plate. After 72 hours of treatment, medium was withdrawn and cells detached from each well using 0.5 mL of 0.05% (w/v) Trypsin, 0,02% (w/v) EDTA (Gibco). Samples were diluted with 9.5 mL of Isoton (Coulter) and counted using a Multisizer 3 cell counter (Beckman Coulter). Data were evaluated as percent of the control wells: % of CTR = (Treated - Blank)/(Control - Blank).
IC50 values were calculated by LSW/Data Analysis using Microsoft Excel sigmoidal curve fitting. […] See, as an example, the following Table 1 reporting the experimental data of some representative compounds of the invention being tested as Aurora-2 kinase inhibitors (IC50 nM) and for their cell antiproliferative effect (IC50 nM), namely: • Compound (1) is 3-[(Thiophene-2-carbonyl)-amino]-1H-furo[3,2-c]pyrazole-5-carboxylic acid (1-methyl-1-phenyl-ethyl)-amide; • Compound (2) is 3-(4-Morpholin-4-ylmethyl-benzoylamino)-1H-furo[3,2-c]pyrazole-5-carboxylic acid[1-(2-fluoro-phenyl)-1-methyl-ethyl]-amide • Compound (3) is 3-[4-(4-Methyl-piperazin-1-yl)-benzoylamino]-1H-furo[3,2-c]pyrazole-5-carboxylic acid (1-phenyl-cyclopropyl)-amide Table 1

The mark [3] stands for this setting: 10 µM ATP, 60 minutes at room temperature, SPA, read-out: Aurora-2 inhibition IC50.
The mark [4] stands for this setting: screened according to the methods of the pharmacology section, read-out: IC50values for Aur2 inhibition.

With `CC(C)(NC(=O)c1cc2[nH]nc(NC(=O)c3ccc(CN4CCOCC4)cc3)c2o1)c1ccccc1F` [Compound 2, 3-(4-Morpholin-4-ylmethyl-benzoylamino)-1H-furo[3,2-c]pyrazole-5-carboxylic acid[1-(2-fluoro-phenyl)-1-methyl-ethyl]-amide], the IC50 in experiment [1] (setting [3]) was 0.001 µM; in experiment [1] (setting [4]) it was < 0.01 µM; in experiment [2], 0.002 µM; in experiment [2] (Homo sapiens, HCT-116, 72 h), 0.004 to 0.01 µM.

Regarding `CC(C)(NC(=O)c1cc2[nH]nc(NC(=O)c3cccs3)c2o1)c1ccccc1` [Compound 1, 3-[(Thiophene-2-carbonyl)-amino]-1H-furo[3,2-c]pyrazole-5-carboxylic acid (1-methyl-1-phenyl-ethyl)-amide], the IC50 in experiment [1] (setting [3]) is 0.003 µM; in experiment [1] (setting [4]), < 0.01 µM; in experiment [2], 0.01 µM. Consider `CC(C)(NC(=O)c1cc2[nH]nc(NC(=O)c3ccc(N4CCOCC4)cc3)c2o1)c1ccccc1` [Compound 75, N-(1-methyl-1-phenylethyl)-3-[(4-morpholin-4-ylbenzoyl)amino]-1H-furo[3,2-c]pyrazole-5-carboxamide], for which the IC50 in experiment [1] (setting [4]) was < 0.01 µM. Still for that read-out and setting: the same measure for `Cc1cc(C(=O)Nc2n[nH]c3cc(C(=O)NC(C)(C)c4ccccc4)oc23)n(C)n1` [Compound 38, 3-{[(1,3-dimethyl-1 H-pyrazol-5-yl)carbonyl]amino}-N-(1-methyl-1-phenylethyl)-1H-furo[3,2-c]pyrazole-5-carboxamide]: < 0.01 µM; for `Cc1csc(C(=O)Nc2n[nH]c3cc(C(=O)NC(C)(C)c4ccccc4)oc23)c1` [Compound 48, N-(1-methyl-1-phenylethyl)-3-{[(4-methyl-2-thienyl)carbonyl]amino}-1H-furo[3,2-c]pyrazole-5-carboxamide]: < 0.01 µM; for `CN1CCN(c2ccc(C(=O)Nc3n[nH]c4cc(C(=O)NC5(c6ccccc6)CCCC5)oc34)cc2)CC1` [Compound 27, 3-{[4-(4-methylpiperazin-1-yl)benzoyl]amino}-N-(1-phenylcyclopentyl)-1H-furo[3,2-c]pyrazole-5-carboxamide]: < 0.01 µM. Still for that read-out and setting: in the case of `CC(C)(NC(=O)c1cc2[nH]nc(NC(=O)c3ccoc3)c2o1)c1ccccc1` [Compound 62, 3-(3-furoylamino)-N-(1-methyl-1-phenylethyl)-1H-furo[3,2-c]pyrazole-5-carboxamide] it was < 0.01 µM; in that of `CN1CCN(Cc2ccc(C(=O)Nc3n[nH]c4cc(C(=O)NC(C)(C)c5ccccc5F)oc34)cc2)CC1` [Compound 60, N-[1-(2-fluorophenyl)-1-methylethyl]-3-({4-[(4-methylpiperazin-1-yl)methyl]benzoyl}amino)-1H-furo[3,2-c]pyrazole-5-carboxamide], < 0.01 µM. For the compound `CN1CCN(c2ccc(C(=O)Nc3n[nH]c4cc(C(=O)NC5(c6ccccc6)CC5)oc34)cc2)CC1` [Compound 3, 3-[4-(4-Methyl-piperazin-1-yl)-benzoylamino]-1H-furo[3,2-c]pyrazole-5-carboxylic acid (1-phenyl-cyclopropyl)-amide], the IC50 in experiment [1] (setting [3]) was 0.004 µM; in experiment [1] (setting [4]), < 0.01 µM; in experiment [2] it was 0.004 µM; in experiment [2] (Homo sapiens, HCT-116, 72 h), 0.004 to 0.01 µM. For `Cn1cccc1C(=O)Nc1n[nH]c2cc(C(=O)NC(C)(C)c3ccccc3)oc12` [Compound 33, N-(1-methyl-1-phenylethyl)-3-{[(1-methyl-1H-pyrrol-2-yl)carbonyl]amino}-1H-furo[3,2-c]pyrazole-5-carboxamide], in experiment [1] (setting [4]), the IC50 was < 0.01 µM. Same read-out and setting: the same measure for `CC(C)(NC(=O)c1cc2[nH]nc(NC(=O)c3ccc(CN4CCOCC4)cc3)c2o1)c1ccccc1` [Compound 32, N-(1-methyl-1-phenylethyl)-3-{[4-(morpholin-4-ylmethyl)benzoyl]amino}-1H-furo[3,2-c]pyrazole-5-carboxamide]: < 0.01 µM; for `CC(C)(NC(=O)c1cc2[nH]nc(NC(=O)c3ccco3)c2o1)c1ccccc1` [Compound 28, 3-(2-furoylamino)-N-(1-methyl-1-phenylethyl)-1H-furo[3,2-c]pyrazole-5-carboxamide]: < 0.01 µM. As to `CC(C)(NC(=O)c1cc2[nH]nc(NC(=O)c3ccc(OCCN4CCCC4)cc3)c2o1)c1ccccc1F` [Compound 69, N-[1-(2-fluorophenyl)-1-methylethyl]-3-{[4-(2-pyrrolidin-1-ylethoxy)benzoyl]amino}-1H-furo[3,2-c]pyrazole-5-carboxamide], in experiment [1] (setting [4]), the IC50 is < 0.01 µM. Same read-out and setting: in the case of `CC(C)(NC(=O)c1cc2[nH]nc(NC(=O)c3ccc(CN4CCC4)cc3)c2o1)c1ccccc1` [Compound 43, 3-{[4-(azetidin-1-ylmethyl)benzoyl]amino}-N-(1-methyl-1-phenylethyl)-1H-furo[3,2-c]pyrazole-5-carboxamide] it was < 0.01 µM; in that of `Cc1ccsc1C(=O)Nc1n[nH]c2cc(C(=O)NC(C)(C)c3ccccc3)oc12` [Compound 44, N-(1-methyl-1-phenylethyl)-3-{[(3-methyl-2-thienyl)carbonyl]amino}-1H-furo[3,2-c]pyrazole-5-carboxamide], < 0.01 µM. Turning to `CN1CCN(c2ccc(C(=O)Nc3n[nH]c4cc(C(=O)NC(C)(C)c5ccccc5F)oc34)cc2)CC1` [Compound 67, N-[1-(2-fluorophenyl)-1-methylethyl]-3-{[4-(4-methylpiperazin-1-yl)benzoyl]amino}-1H-furo[3,2-c]pyrazole-5-carboxamide], the IC50 in experiment [1] (setting [4]) was < 0.01 µM. Same read-out and setting: in the case of `CC(C)(NC(=O)c1cc2[nH]nc(NC(=O)c3cccs3)c2o1)c1ccc(F)cc1F` [Compound 58, N-[1-(2,4-difluorophenyl)-1-methylethyl]-3-[(2-thienylcarbonyl)amino]-1H-furo[3,2-c]pyrazole-5-carboxamide] it was < 0.01 µM.

These data come from EP2058315A1, “1H-Furo[3,2-C]Pyrazoles active as aurora kinase inhibitors” (Nerviano Medical Sciences S.r.l., priority 2007, dated 2009).
